# Measured values: patent publication US8212024B2, “Crystalline sodium salt of cephalosporin antibiotic” (Orchid Chemicals & Pharmaceuticals Ltd., priority 2005, dated 2012)
# Columns and labels:
# Type in all cases: physicochemical
# [1] = Comparison of physical characteristics: tapped bulk density
# Text: The following Table provides a comparison of physical characteristics of amorphous and crystalline Ceftiofur Sodium. From this table it is evident that the crystalline Ceftiofur Sodium has better physical characteristics than amorphous material. [table]
# [2] = Hygroscopicity observation
# Text: Apart from the conventional formulation that are described the Ceftiofur sodium formulation may also contain chelating agent like ethylene diamine tetraacetic acid (EDTA) or a buffer like sodium citrate along with or with out conventional excipient. The pharmaceutical composition may also contain amorphous Ceftiofur sodium along with crystalline Ceftiofur sodium.
# [3] = Stability at 40 ± 2° C. & 75 ± 5% RH; settings: for Assay: in % (unit assumed)
# Text: (§1) The following Tables (Table 2 & 3) provide stability data of crystalline Ceftiofur Sodium prepared according to this invention. From this it table it is evident that the crystalline Ceftiofur Sodium prepared according this invention is a very stable and a highly pure material, which is clearly indicated by total RS (Related substances) analysis & the stability data. [table]
# [4] = Stability at 25 ± 2° C. & 60 ± 5% RH; settings: for Assay: in % (unit assumed)
# Text: as §1
Tapped Bulk density [1] [g/mL],Hygroscopic nature [2],Total RS (Related substances) ([3]; 2 month) [%],Assay ([3]; 2 month),Total RS (Related substances) ([3]; 15 days) [%],Assay ([3]; 15 days),Total RS (Related substances) ([3]; Initial) [%],Assay ([3]; Initial),Total RS (Related substances) ([4]; 1 month) [%],Assay ([4]; 1 month),Total RS (Related substances) ([4]; 2 month) [%],Assay ([4]; 2 month),Total RS (Related substances) ([4]; Initial) [%],Assay ([4]; Initial),SMILES
0.5,highly hygroscopic,–,–,–,–,–,–,–,–,–,–,–,–,"CO/N=C(\C(=O)NC1C(=O)N2C(C(=O)[O-])=C(CSC(=O)c3ccco3)CSC12)c1csc(N)n1.[Na+] (centres unmarked) [Amorphous Ceftiofur sodium, Ceftiofur sodium, reference compound]"
–,non-hygroscopic,–,–,–,–,–,–,–,–,–,–,–,–,CO/N=C(\C(=O)N[C@@H]1C(=O)N2C(C(=O)[O-])=C(CSC(=O)c3ccco3)CS[C@H]12)c1csc(N)n1.[Na+] [Ceftiofur sodium]
0.8,non-hygroscopic,0.93,100.61,0.78,100.64,0.61,101.25,0.75,101.18,0.78,100.31,0.61,101.25,"CO/N=C(\C(=O)NC1C(=O)N2C(C(=O)[O-])=C(CSC(=O)c3ccco3)CSC12)c1csc(N)n1.[Na+] (centres unmarked) [Crystalline Ceftiofur sodium, Ceftiofur sodium]"
